What was measured:
[1] = test system: naive CD62LhiCD4+CD25− LN T cells; assay: Foxp3 induction in newly activated naive CD4 T cells (intracellular staining); assay type: cell-based, mouse
Experimental: Mouse strains, cell sorting and culture Animal work was carried out according the Animals (Scientific Procedures) Act, UK. Lymph node (LN) cells were stained, analysed and sorted by flow cytometry as described (Cobb et al 2005 J. Exp. Med. 201: 1367-1373). Intracellular staining for Foxp3 protein was done as advised by the manufacturers (eBiosciences.com). The phosphorylation syatus of S6 ribosomal protein was determined using anti pS6 Ser235/236 (Cellsignaling cat.no. 2211, http://www.cellsignal.com) using the eBioscience Foxp3 staining kit and anti rabbit IgG-FITC or IgG-Cy5 (Jackson Immunoresearch). For induction of Foxp3 expression, sorted LN CD4+ CD25− CD62Lhi T cells were cultured at 1-3×10^6/ml with plate bound anti-TCRβ. […] After 18 hours the cells were either left in place for continued TCR stimulation or moved to uncoated wells with the indicated additives. To assess regulatory function, CD4 T cells cultured as indicated were titrated into round bottom wells containing either 1×10^5 CFSE labeled total LN cells or 5×10^4 CFSE labeled CD4^+ CD25^− T cells and 1×10^5 mitomycin-C treated (25 μg/ml, 20 min, 37° C.) T cell depleted splenocytes with the indicated concentrations of anti CD3 (2C11, Pharmingen). CD4 T cell CFSE profiles were recorded between 48 and 72 hours later.
Mice, Cell Sorting and Culture. Animal work was carried out according to the Animals (Scientific Procedures) Act, UK. Lymph node (LN) cells or thymocytes from wild type were stained, analysed and sorted by flow cytometry as described (Thompson et al., 2007 Immunity VoI 26 pp 335-344) from wild type (C57BL/6, BALB/c or C57BL/6×129) mice or from Rag1 deficient H2^b AND TCR transgenic mice. Antigen presenting cells were derived from bone marrow in the presence of GM-CSF and incubated with antigenic peptide. Intracellular staining for Foxp3 protein was done as advised by the manufacturers (eBiosciences.com). The phosphorylation status of S6 ribosomal protein was determined using anti pS6 Ser235/236 (Cell Signaling cat.no. 2211, http://www.cellsignal.com) using the eBioscience Foxp3 staining kit and anti rabbit IgG-FITC or IgG-Cy5 (Jackson ImmunoResearch). […] After 18 hours the cells were either left in place for continued TCR stimulation or moved to uncoated wells with the indicated additives. To assess regulatory function, CD4 T cells cultured as indicated were titrated into round bottom wells containing either 1×10^5 CFSE labeled total LN cells or 5×10^4 CFSE labeled CD4^+CD25^− T cells and 1×10^5 mitomycin-C treated (25 μg/ml, 20 min, 37° C.) T cell depleted splenocytes with the indicated concentrations of anti CD3 (2C11, Pharmingen). CD4 T cell CFSE profiles were recorded between 48 and 72 hours later.

[2] = target: p110α (Homo sapiens, UniProt P42336); conditions: unit inferred; read-out: Specificity for p110α (IC50 determined in vitro); cited from earlier work
[3] = target: p110β (Homo sapiens, UniProt P42338); conditions: unit inferred; read-out: Specificity for p110β (IC50 determined in vitro); cited from earlier work
[4] = target: p110δ (Homo sapiens, UniProt O00329); conditions: unit inferred; read-out: Specificity for p110δ (IC50 determined in vitro); cited from earlier work
[5] = target: p110γ (Homo sapiens, UniProt P48736); conditions: unit inferred; read-out: Specificity for p110γ (IC50 determined in vitro); cited from earlier work
[6] = target: PI3KC2α (Homo sapiens, UniProt O00443); conditions: unit inferred; read-out: Specificity for PI3KC2α (IC50 determined in vitro); cited from earlier work
[7] = target: PI3KC2β (Homo sapiens, UniProt O00750); conditions: unit inferred; read-out: Specificity for PI3KC2β (IC50 determined in vitro); cited from earlier work
[8] = target: PI3KC2γ (Homo sapiens, UniProt O75747); conditions: unit inferred; read-out: Specificity for PI3KC2γ (IC50 determined in vitro); cited from earlier work
[9] = target: hsVPS34 (Homo sapiens, UniProt Q8NEB9); conditions: unit inferred; read-out: Specificity for hsVPS34 (IC50 determined in vitro); cited from earlier work
[10] = target: PI4KIIα (Homo sapiens, UniProt Q9BTU6); conditions: unit inferred; read-out: Specificity for PI4KIIα (IC50 determined in vitro); cited from earlier work
[11] = target: PI4KIIIα (Homo sapiens, UniProt P42356); conditions: unit inferred; read-out: Specificity for PI4KIIIα (IC50 determined in vitro); cited from earlier work
[12] = target: PI4KIIIβ (Homo sapiens, UniProt Q9UBF8); conditions: unit inferred; read-out: Specificity for PI4KIIIβ (IC50 determined in vitro); cited from earlier work
[13] = target: ATR (Homo sapiens, UniProt Q13535); conditions: unit inferred; read-out: Specificity for ATR (IC50 determined in vitro); cited from earlier work
[14] = target: ATM (Homo sapiens, UniProt Q13315); conditions: unit inferred; read-out: Specificity for ATM (IC50 determined in vitro); cited from earlier work
[15] = target: DNA-PK (Homo sapiens, UniProt P78527); conditions: unit inferred; read-out: Specificity for DNA-PK (IC50 determined in vitro); cited from earlier work
[16] = target: mTORC1 (Homo sapiens, UniProt P42345); conditions: unit inferred; read-out: Specificity for mTORC1 (IC50 determined in vitro); cited from earlier work
[17] = target: mTORC2 (Homo sapiens, UniProt P42345); conditions: unit inferred; read-out: Specificity for mTORC2 (IC50 determined in vitro); cited from earlier work
[18] = target: PI4P5KIα (Homo sapiens, UniProt Q99755); conditions: first PI4P5KIα line; unit inferred; read-out: Specificity for PI4P5KIα (IC50 determined in vitro); cited from earlier work
[19] = test system: PI4P5KIα; conditions: second PI4P5KIα line; unit inferred; read-out: Specificity for PI4P5KIα (IC50 determined in vitro); cited from earlier work
[20] = target: T1, PI5P4KIIβ (Homo sapiens, UniProt P78356); conditions: unit inferred; read-out: Specificity for PI5P4KIIβ (IC50 determined in vitro); cited from earlier work
T1 sequence (P78356 1-416): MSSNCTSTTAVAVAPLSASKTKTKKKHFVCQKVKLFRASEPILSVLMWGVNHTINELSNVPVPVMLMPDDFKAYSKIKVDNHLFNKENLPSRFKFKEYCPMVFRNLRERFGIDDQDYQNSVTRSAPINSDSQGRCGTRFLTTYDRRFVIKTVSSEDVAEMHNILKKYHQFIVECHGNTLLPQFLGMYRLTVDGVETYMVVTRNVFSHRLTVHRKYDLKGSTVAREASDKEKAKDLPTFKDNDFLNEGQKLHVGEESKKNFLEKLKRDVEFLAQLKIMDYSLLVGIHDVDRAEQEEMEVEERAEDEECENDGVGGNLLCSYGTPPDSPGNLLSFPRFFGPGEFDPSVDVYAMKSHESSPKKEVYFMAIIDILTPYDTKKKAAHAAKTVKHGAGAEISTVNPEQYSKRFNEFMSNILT

Sequence of ATR (Q13535 whole entry): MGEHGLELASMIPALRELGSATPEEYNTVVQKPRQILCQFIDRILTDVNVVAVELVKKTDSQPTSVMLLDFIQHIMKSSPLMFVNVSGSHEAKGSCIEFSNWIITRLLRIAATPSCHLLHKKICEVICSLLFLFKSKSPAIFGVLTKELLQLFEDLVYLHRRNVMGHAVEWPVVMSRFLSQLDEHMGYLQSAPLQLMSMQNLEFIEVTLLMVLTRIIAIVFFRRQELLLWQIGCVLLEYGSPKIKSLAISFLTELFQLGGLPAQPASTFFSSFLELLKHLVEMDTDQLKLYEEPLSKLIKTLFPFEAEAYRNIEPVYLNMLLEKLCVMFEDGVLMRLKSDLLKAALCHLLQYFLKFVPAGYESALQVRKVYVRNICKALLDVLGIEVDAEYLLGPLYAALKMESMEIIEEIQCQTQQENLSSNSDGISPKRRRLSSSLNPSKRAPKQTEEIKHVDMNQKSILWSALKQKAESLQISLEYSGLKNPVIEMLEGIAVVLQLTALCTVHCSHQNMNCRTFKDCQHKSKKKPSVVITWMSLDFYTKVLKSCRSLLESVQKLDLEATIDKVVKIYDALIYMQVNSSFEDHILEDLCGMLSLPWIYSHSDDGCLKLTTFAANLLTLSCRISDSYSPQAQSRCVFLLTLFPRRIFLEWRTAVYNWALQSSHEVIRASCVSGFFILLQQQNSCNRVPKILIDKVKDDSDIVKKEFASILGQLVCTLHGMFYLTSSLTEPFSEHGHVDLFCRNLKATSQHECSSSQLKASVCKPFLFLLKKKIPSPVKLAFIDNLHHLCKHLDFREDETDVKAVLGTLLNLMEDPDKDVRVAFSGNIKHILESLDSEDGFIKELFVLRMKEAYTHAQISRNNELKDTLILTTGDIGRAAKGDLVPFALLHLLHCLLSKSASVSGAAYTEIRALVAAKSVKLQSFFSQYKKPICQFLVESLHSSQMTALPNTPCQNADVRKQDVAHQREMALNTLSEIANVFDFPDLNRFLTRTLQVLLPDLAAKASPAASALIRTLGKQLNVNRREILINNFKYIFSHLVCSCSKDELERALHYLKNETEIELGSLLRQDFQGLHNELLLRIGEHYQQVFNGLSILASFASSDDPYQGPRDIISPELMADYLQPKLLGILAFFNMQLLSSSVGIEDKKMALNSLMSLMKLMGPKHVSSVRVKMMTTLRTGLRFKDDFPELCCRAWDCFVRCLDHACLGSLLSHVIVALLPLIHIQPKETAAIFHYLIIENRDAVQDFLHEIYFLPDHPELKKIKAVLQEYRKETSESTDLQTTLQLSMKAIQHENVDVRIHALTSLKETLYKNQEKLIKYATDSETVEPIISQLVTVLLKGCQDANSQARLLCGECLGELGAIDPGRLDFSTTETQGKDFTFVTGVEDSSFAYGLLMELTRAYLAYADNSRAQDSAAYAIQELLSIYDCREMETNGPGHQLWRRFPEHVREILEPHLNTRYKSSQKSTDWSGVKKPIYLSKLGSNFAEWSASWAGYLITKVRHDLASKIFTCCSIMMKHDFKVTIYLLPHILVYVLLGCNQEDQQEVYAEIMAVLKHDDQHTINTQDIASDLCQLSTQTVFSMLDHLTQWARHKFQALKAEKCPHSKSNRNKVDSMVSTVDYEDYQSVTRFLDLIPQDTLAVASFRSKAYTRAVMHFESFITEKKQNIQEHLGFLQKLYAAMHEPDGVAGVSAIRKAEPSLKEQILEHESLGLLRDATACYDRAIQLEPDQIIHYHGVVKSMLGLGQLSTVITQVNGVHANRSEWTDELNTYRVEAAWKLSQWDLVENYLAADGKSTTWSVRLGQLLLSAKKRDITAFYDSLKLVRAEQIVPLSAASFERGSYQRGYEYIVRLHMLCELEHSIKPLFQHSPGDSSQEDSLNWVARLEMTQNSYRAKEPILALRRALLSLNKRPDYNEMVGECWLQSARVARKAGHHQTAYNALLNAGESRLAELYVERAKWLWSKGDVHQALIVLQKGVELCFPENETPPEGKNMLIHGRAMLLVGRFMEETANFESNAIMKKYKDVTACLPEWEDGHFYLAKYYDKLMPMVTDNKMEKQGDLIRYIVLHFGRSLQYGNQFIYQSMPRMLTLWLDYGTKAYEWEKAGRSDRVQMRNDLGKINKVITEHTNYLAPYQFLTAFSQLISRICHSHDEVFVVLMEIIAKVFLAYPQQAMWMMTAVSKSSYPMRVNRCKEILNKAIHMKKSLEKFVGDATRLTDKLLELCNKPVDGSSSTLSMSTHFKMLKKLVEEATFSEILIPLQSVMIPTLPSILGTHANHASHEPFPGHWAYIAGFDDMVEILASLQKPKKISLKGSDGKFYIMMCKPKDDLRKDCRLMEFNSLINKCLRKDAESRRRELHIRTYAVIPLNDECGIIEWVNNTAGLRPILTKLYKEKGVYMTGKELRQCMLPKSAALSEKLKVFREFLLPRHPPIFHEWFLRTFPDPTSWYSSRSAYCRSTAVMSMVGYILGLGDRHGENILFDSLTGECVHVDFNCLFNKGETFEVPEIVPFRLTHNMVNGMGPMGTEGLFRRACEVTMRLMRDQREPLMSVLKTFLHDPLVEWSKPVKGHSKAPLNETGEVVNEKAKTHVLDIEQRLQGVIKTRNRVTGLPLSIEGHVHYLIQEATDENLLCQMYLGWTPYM
Sequence of ATR (Q8WXE1 whole entry partner): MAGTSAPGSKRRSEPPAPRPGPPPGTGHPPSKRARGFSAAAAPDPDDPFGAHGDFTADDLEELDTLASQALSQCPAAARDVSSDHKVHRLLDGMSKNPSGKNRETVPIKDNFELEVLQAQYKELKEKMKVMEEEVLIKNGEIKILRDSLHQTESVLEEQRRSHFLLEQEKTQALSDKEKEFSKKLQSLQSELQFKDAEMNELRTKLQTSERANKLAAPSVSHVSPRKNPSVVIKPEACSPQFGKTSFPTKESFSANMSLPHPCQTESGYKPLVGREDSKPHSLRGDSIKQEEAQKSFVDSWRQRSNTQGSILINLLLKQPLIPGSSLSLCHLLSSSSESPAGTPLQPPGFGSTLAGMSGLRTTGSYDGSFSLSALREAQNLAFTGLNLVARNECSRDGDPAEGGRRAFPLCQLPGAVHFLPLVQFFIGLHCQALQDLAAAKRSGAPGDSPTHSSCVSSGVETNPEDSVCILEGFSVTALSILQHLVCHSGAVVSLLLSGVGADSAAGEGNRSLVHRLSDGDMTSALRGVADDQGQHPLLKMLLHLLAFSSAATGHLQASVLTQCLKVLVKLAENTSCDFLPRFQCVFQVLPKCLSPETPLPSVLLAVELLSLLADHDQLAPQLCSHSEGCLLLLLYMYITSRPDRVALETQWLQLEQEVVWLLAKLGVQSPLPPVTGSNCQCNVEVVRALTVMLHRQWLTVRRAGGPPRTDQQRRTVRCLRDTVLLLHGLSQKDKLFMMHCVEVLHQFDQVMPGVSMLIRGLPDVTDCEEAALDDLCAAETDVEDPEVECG
Sequence of PI4KIIα (Q9BTU6 whole entry): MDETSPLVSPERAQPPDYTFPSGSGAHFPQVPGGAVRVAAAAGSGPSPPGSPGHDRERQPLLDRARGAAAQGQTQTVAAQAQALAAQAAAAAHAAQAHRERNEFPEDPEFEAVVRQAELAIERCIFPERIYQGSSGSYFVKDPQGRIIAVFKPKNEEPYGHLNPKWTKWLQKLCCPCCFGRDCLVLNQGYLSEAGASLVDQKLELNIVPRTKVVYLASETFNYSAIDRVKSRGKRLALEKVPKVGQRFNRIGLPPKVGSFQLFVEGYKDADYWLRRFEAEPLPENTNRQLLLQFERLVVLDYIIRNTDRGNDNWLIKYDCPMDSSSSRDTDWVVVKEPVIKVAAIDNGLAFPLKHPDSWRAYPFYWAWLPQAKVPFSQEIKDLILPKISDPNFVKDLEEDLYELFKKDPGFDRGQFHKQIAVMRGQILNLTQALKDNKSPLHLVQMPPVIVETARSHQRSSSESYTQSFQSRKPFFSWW
Sequence of hsVPS34 (Q8NEB9 whole entry): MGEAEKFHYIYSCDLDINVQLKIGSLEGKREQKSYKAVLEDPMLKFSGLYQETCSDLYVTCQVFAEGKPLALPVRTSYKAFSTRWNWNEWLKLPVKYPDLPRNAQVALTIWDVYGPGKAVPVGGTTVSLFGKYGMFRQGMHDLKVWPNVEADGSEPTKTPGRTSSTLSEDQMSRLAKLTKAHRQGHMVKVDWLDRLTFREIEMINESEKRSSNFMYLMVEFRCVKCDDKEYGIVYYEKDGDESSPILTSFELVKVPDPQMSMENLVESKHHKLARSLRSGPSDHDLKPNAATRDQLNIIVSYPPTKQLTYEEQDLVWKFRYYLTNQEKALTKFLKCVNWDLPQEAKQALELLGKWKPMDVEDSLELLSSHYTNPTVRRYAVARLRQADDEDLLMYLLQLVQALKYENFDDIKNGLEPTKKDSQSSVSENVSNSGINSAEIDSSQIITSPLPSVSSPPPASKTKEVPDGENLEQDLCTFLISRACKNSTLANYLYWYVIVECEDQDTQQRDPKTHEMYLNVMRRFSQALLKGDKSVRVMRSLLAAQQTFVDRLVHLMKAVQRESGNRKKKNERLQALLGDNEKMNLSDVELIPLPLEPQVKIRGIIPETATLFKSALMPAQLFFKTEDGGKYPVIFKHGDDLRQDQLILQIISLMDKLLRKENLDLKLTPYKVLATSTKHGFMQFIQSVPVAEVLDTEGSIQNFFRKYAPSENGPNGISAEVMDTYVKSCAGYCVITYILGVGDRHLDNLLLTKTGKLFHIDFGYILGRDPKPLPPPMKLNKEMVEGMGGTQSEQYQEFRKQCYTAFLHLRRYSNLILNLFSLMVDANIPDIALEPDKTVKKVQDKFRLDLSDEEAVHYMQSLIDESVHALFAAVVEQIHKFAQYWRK

Q: For Cc1ccccc1Oc1cccc2c(=O)cc(N3CCOCC3)[nH]c12 [TGX115], which “effect on Foxp3 expression at 0.1 μM” value ([1]; 0.1 μM) is on record?
A: did not affect Foxp3 expression

Q: And the “effect on Foxp3 expression at 10 μM” value [1]?
A: slight impact on Foxp3 expression

Q: And the “effect on Foxp3 expression at 10 μM” value ([1]; listed as TGX-115)?
A: very little effect

Q: And the IC50 [2]?
A: 61 µM

Q: And the IC50 [3]?
A: 0.13 µM

Q: And the IC50 [4]?
A: 0.63 µM

Q: What about the IC50 [5] of the same molecule?
A: 100 µM

Q: And the IC50 [6]?
A: > 100 µM

Q: What about the IC50 [7] of the same molecule?
A: 50 µM

Q: What about the IC50 [8] of the same molecule?
A: 100 µM

Q: And the IC50 [9]?
A: 5.2 µM

Q: What about the IC50 [10] of the same molecule?
A: > 100 µM

Q: What about the IC50 [11] of the same molecule?
A: > 100 µM

Q: What about the IC50 [12] of the same molecule?
A: > 100 µM

Q: And the IC50 [13]?
A: > 100 µM

Q: What about the IC50 [14] of the same molecule?
A: 20 µM

Q: And the IC50 [15]?
A: 1.2 µM

Q: And the IC50 [16]?
A: > 100 µM

Q: And the IC50 [17]?
A: > 100 µM

Q: What about the IC50 [18] of the same molecule?
A: > 100 µM

Q: And the IC50 [19]?
A: > 100 µM

Q: What about the IC50 [20] of the same molecule?
A: > 100 µM
